Values quoted from earlier work, collected in the PKSmart pharmacokinetics tables (Seal et al. 2025).

How the values were obtained:
[1] = Lombardo, Berellini, Obach 2018, Drug Metab Dispos 46:1466, doi 10.1124/dmd.118.082966; details: human; for MRT / Vd / clearance / half-life: in vivo, iv; for fraction unbound: plasma
[2] = Lombardo et al. 2013, J Clin Pharmacol 53:178, doi 10.1177/0091270012440282; details: for Vd / clearance: in vivo, iv; for fraction unbound: plasma

C[C@]12CC[C@@H]3c4ccc(O)cc4CC[C@H]3[C@@H]1CC[C@@H]2O
MRT [1]: 0.7 h
Vd [1]: 1.2 L/kg
clearance [1]: 30 mL/min/kg
half-life [1]: 1.7 h
Vd ([2]; rat): 5.9 L/kg
clearance ([2]; rat): 69 mL/min/kg
fraction unbound ([2]; rat): 0.053

COc1cc([C@@H]2c3cc4c(cc3[C@@H](O[C@@H]3O[C@@H]5CO[C@@H](C)O[C@H]5[C@H](O)[C@H]3O)[C@H]3COC(=O)C23)OCO4)cc(OC)c1O (some centres not stated)
MRT [1]: 6 h
Vd [1]: 0.18 L/kg
half-life [1]: 5.7 h
Vd ([2]; dog): 1.4 L/kg
clearance ([2]; dog): 13 mL/min/kg
fraction unbound ([2]; dog): 0.63
Vd ([2]; monkey): 0.16 L/kg
clearance ([2]; monkey): 1.5 mL/min/kg
fraction unbound ([2]; monkey): 0.0051
Vd ([2]; rat): 0.58 L/kg
clearance ([2]; rat): 23 mL/min/kg
fraction unbound ([2]; rat): 0.43

Cn1nnnc1SCC1=C(C(=O)O)N2C(=O)C(NC(=O)C(O)c3ccccc3)[C@H]2SC1 (some centres not stated)
MRT [1]: 0.75 h
Vd [1]: 0.16 L/kg
clearance [1]: 3.6 mL/min/kg
half-life [1]: 0.75 h
fraction unbound [1]: 0.25
Vd ([2]; rat): 0.25 L/kg
clearance ([2]; rat): 21.8 mL/min/kg

NC(=O)c1csc([C@@H]2O[C@H](CO)[C@@H](O)[C@H]2O)n1
MRT [1]: 7.6 h
Vd [1]: 1.1 L/kg
half-life [1]: 5.9 h
fraction unbound [1]: 0.47
Vd ([2]; dog): 0.99 L/kg
fraction unbound ([2]; dog): 0.85
Vd ([2]; monkey): 2 L/kg
fraction unbound ([2]; monkey): 1

CC(=N)N1CC[C@H](SC2=C(C(=O)O)N3C(=O)C([C@@H](C)O)[C@H]3C2)C1 (some centres not stated)
MRT [1]: 1.2 h
Vd [1]: 0.19 L/kg
clearance [1]: 2.6 mL/min/kg
half-life [1]: 0.96 h
Vd ([2]; dog): 0.21 L/kg
clearance ([2]; dog): 4.85 mL/min/kg
fraction unbound ([2]; dog): 0.95
Vd ([2]; monkey): 0.3 L/kg
clearance ([2]; monkey): 6.52 mL/min/kg
fraction unbound ([2]; monkey): 0.93
Vd ([2]; rat): 0.2 L/kg
clearance ([2]; rat): 27.7 mL/min/kg
fraction unbound ([2]; rat): 0.95

C[C@H]1NCc2cc(-c3ccc4c(=O)c(C(=O)O)cn(C5CC5)c4c3OC(F)F)ccc21
MRT [1]: 13.7 h
Vd [1]: 1 L/kg
clearance [1]: 1.23 mL/min/kg
fraction unbound [1]: 0.25
Vd ([2]; dog): 1.29 L/kg
clearance ([2]; dog): 2.43 mL/min/kg
fraction unbound ([2]; dog): 0.23
Vd ([2]; monkey): 0.96 L/kg
clearance ([2]; monkey): 3.39 mL/min/kg
fraction unbound ([2]; monkey): 0.19
Vd ([2]; rat): 0.9 L/kg
clearance ([2]; rat): 12.1 mL/min/kg
fraction unbound ([2]; rat): 0.13

C[C@@H](O)C1C(=O)N2C(C(=O)O)=C(S[C@@H]3CNC(C(=O)Nc4cccc(C(=O)O)c4)C3)[C@H](C)[C@H]12 (some centres not stated)
MRT [1]: 4.4 h
Vd [1]: 0.12 L/kg
clearance [1]: 0.45 mL/min/kg
half-life [1]: 3.8 h
fraction unbound [1]: 0.1
Vd ([2]; monkey): 0.17 L/kg
clearance ([2]; monkey): 0.47 mL/min/kg
Vd ([2]; rat): 0.34 L/kg
clearance ([2]; rat): 10 mL/min/kg

C[C@@H](O)C1C(=O)N2C(C(=O)[O-])=C(SC3Cn4cnc[n+]4C3)[C@H](C)[C@H]12 (some centres not stated)
MRT [1]: 1.3 h
Vd [1]: 0.2 L/kg
clearance [1]: 2.5 mL/min/kg
half-life [1]: 1.1 h
fraction unbound [1]: 0.92
Vd ([2]; dog): 0.21 L/kg
clearance ([2]; dog): 4.7 mL/min/kg
fraction unbound ([2]; dog): 0.94
Vd ([2]; monkey): 0.25 L/kg
clearance ([2]; monkey): 5.5 mL/min/kg
Vd ([2]; rat): 0.19 L/kg
clearance ([2]; rat): 13 mL/min/kg
fraction unbound ([2]; rat): 0.96

CC1=NC(=O)[C@](CCN(C(C)C)C(C)C)(c2ccccc2)[C@H]2CCCCN12
MRT [1]: 1.58 h
Vd [1]: 0.58 L/kg
clearance [1]: 6.79 mL/min/kg
half-life [1]: 1.89 h
fraction unbound [1]: 0.7
Vd ([2]; dog): 1.3 L/kg
clearance ([2]; dog): 12 mL/min/kg
fraction unbound ([2]; dog): 0.618
Vd ([2]; monkey): 1.6 L/kg
clearance ([2]; monkey): 20 mL/min/kg
fraction unbound ([2]; monkey): 0.656
Vd ([2]; rat): 4.2 L/kg
clearance ([2]; rat): 48 mL/min/kg
fraction unbound ([2]; rat): 0.63

CS(=O)(=O)OCCCCOS(C)(=O)=O
MRT [1]: 3.8 h
Vd [1]: 0.55 L/kg
clearance [1]: 2.4 mL/min/kg
half-life [1]: 3.4 h
Vd ([2]; dog): 1 L/kg
clearance ([2]; dog): 19.2 mL/min/kg
Vd ([2]; rat): 0.68 L/kg
clearance ([2]; rat): 5 mL/min/kg
fraction unbound ([2]; rat): 0.91

COc1ccc2c3c1OC1C(=O)CC[C@@]4(O)[C@@H](C2)N(C)CC[C@]314 (some centres not stated)
fraction unbound [1]: 0.55
fraction unbound ([2]; rat): 0.87

COC(=O)C1[C@@H](OC(=O)c2ccccc2)C[C@@H]2CC[C@H]1N2C (some centres not stated)
MRT [1]: 1 h
Vd [1]: 2 L/kg
clearance [1]: 32 mL/min/kg
half-life [1]: 0.76 h
fraction unbound [1]: 0.12
Vd ([2]; dog): 2.6 L/kg
clearance ([2]; dog): 48.7 mL/min/kg
fraction unbound ([2]; dog): 0.76
Vd ([2]; rat): 16.4 L/kg
clearance ([2]; rat): 253 mL/min/kg
fraction unbound ([2]; rat): 0.78

CC(C)(C)NCC(O)COc1ccc(NC(=O)NC2CCCCC2)cc1 (configuration not stated)
MRT [1]: 11 h
Vd [1]: 3.3 L/kg
clearance [1]: 4.9 mL/min/kg
half-life [1]: 11 h
Vd ([2]; rat): 4.5 L/kg
clearance ([2]; rat): 47.5 mL/min/kg

CSc1ccc(C(=O)c2[nH]c(=O)[nH]c2C)cc1
MRT [1]: 1.33 h
Vd [1]: 1.48 L/kg
clearance [1]: 19.1 mL/min/kg
half-life [1]: 1.94 h
fraction unbound [1]: 0.3
Vd ([2]; dog): 2.1 L/kg
clearance ([2]; dog): 26 mL/min/kg

COc1ccc2c3c1O[C@H]1[C@@H](O)C=C[C@H]4[C@@H](C2)N(C)CC[C@@]341
MRT [1]: 3.9 h
Vd [1]: 3.5 L/kg
clearance [1]: 15 mL/min/kg
half-life [1]: 4 h
fraction unbound [1]: 0.7
fraction unbound ([2]; rat): 0.92

Cc1cc(=O)c(C(=O)NC(C(=O)NC2C(=O)N3C(C(=O)O)=C(CSc4nnnn4C)CS[C@H]23)c2ccc(O)cc2)c[nH]1 (some centres not stated)
MRT [1]: 5.2 h
Vd [1]: 0.15 L/kg
clearance [1]: 0.48 mL/min/kg
half-life [1]: 5.4 h
fraction unbound [1]: 0.03
Vd ([2]; dog): 0.49 L/kg
clearance ([2]; dog): 5.7 mL/min/kg
fraction unbound ([2]; dog): 0.7
Vd ([2]; monkey): 0.1 L/kg
clearance ([2]; monkey): 0.5 mL/min/kg
fraction unbound ([2]; monkey): 0.07
Vd ([2]; rat): 0.26 L/kg
clearance ([2]; rat): 9.5 mL/min/kg
fraction unbound ([2]; rat): 0.54

CON=C(C(=O)NC1C(=O)N2C(C(=O)O)=C(COC(N)=O)CS[C@H]12)c1ccco1 (some centres not stated)
MRT [1]: 1.1 h
Vd [1]: 0.15 L/kg
clearance [1]: 2.2 mL/min/kg
half-life [1]: 1.1 h
Vd ([2]; dog): 1.5 L/kg
clearance ([2]; dog): 5 mL/min/kg

CC(C)(C)NCC(O)c1ccc(O)c(CO)c1 (configuration not stated)
MRT [1]: 4.1 h
Vd [1]: 1.9 L/kg
Vd ([2]; dog): 3.9 L/kg
fraction unbound ([2]; dog): 0.05
Vd ([2]; rat): 30 L/kg
fraction unbound ([2]; rat): 0.05

Nc1nc(N)c2nc(-c3ccccc3)c(N)nc2n1
MRT [1]: 3.4 h
Vd [1]: 13 L/kg
clearance [1]: 63 mL/min/kg
half-life [1]: 4.3 h
fraction unbound [1]: 0.42
Vd ([2]; rat): 2.2 L/kg
clearance ([2]; rat): 10.1 mL/min/kg

CN(C(=O)c1c(O)c2ccccc2n(C)c1=O)c1ccccc1
MRT [1]: 43 h
Vd [1]: 0.21 L/kg
clearance [1]: 0.082 mL/min/kg
half-life [1]: 31 h
Vd ([2]; rat): 0.32 L/kg
clearance ([2]; rat): 0.17 mL/min/kg

Nc1ccn([C@@H]2CO[C@H](CO)O2)c(=O)n1
MRT [1]: 6.9 h
Vd [1]: 1 L/kg
clearance [1]: 2.4 mL/min/kg
half-life [1]: 82 h
Vd ([2]; rat): 1.42 L/kg
clearance ([2]; rat): 23 mL/min/kg

COc1cccc2c1C(=O)c1c(O)c3c(c(O)c1C2=O)C[C@@](O)(C(=O)CO)C[C@@H]3O[C@H]1C[C@H](N)[C@@H](O)[C@H](C)O1
MRT [1]: 38 h
Vd [1]: 45 L/kg
clearance [1]: 20 mL/min/kg
half-life [1]: 36 h
Vd ([2]; dog): 71.9 L/kg
fraction unbound ([2]; dog): 0.808
Vd ([2]; rat): 0.17 L/kg
clearance ([2]; rat): 25.9 mL/min/kg

CNS(=O)(=O)Cc1ccc2[nH]cc(CCN(C)C)c2c1
MRT [1]: 1.5 h
Vd [1]: 1.7 L/kg
clearance [1]: 19 mL/min/kg
half-life [1]: 1.7 h
Vd ([2]; dog): 1.74 L/kg
clearance ([2]; dog): 13.9 mL/min/kg
fraction unbound ([2]; dog): 0.86
Vd ([2]; rat): 1.15 L/kg
clearance ([2]; rat): 28 mL/min/kg
fraction unbound ([2]; rat): 0.85

Cc1cccnc1NS(=O)(=O)c1ccc(C#Cc2ccc(O)c(C(=O)O)c2)cc1
MRT [1]: 23.8 h
Vd [1]: 0.1 L/kg
clearance [1]: 0.07 mL/min/kg
half-life [1]: 16 h
fraction unbound [1]: 0.0019
Vd ([2]; dog): 0.19 L/kg
clearance ([2]; dog): 20 mL/min/kg
fraction unbound ([2]; dog): 0.01
Vd ([2]; monkey): 0.08 L/kg
clearance ([2]; monkey): 1.9 mL/min/kg
fraction unbound ([2]; monkey): 0.003
Vd ([2]; rat): 1.2 L/kg
clearance ([2]; rat): 62 mL/min/kg
fraction unbound ([2]; rat): 0.0033

CC(C)N(CCC(C(N)=O)(c1ccccc1)c1ccccn1)C(C)C (configuration not stated)
MRT [1]: 9.6 h
Vd [1]: 0.52 L/kg
clearance [1]: 0.9 mL/min/kg
half-life [1]: 7 h
fraction unbound [1]: 0.16
Vd ([2]; dog): 1.27 L/kg
clearance ([2]; dog): 9.87 mL/min/kg
clearance ([2]; rat): 34 mL/min/kg
